Data taken from patent US20220274961A1, “SUBSTITUTED FUSED BI- OR TRI- HETEROCYCLIC COMPOUNDS AS EHMT2 INHIBITORS” (priority 2016, published 2022).
Where two headings read alike, the source gives them in different places.

Molecular target: T1, EHMT2 (Homo sapiens, UniProt Q96KQ7)
T1 construct: endogenous in cells; host or cells: MDA-MB-231 (ATCC)
T1 sequence (Q96KQ7 1-1210): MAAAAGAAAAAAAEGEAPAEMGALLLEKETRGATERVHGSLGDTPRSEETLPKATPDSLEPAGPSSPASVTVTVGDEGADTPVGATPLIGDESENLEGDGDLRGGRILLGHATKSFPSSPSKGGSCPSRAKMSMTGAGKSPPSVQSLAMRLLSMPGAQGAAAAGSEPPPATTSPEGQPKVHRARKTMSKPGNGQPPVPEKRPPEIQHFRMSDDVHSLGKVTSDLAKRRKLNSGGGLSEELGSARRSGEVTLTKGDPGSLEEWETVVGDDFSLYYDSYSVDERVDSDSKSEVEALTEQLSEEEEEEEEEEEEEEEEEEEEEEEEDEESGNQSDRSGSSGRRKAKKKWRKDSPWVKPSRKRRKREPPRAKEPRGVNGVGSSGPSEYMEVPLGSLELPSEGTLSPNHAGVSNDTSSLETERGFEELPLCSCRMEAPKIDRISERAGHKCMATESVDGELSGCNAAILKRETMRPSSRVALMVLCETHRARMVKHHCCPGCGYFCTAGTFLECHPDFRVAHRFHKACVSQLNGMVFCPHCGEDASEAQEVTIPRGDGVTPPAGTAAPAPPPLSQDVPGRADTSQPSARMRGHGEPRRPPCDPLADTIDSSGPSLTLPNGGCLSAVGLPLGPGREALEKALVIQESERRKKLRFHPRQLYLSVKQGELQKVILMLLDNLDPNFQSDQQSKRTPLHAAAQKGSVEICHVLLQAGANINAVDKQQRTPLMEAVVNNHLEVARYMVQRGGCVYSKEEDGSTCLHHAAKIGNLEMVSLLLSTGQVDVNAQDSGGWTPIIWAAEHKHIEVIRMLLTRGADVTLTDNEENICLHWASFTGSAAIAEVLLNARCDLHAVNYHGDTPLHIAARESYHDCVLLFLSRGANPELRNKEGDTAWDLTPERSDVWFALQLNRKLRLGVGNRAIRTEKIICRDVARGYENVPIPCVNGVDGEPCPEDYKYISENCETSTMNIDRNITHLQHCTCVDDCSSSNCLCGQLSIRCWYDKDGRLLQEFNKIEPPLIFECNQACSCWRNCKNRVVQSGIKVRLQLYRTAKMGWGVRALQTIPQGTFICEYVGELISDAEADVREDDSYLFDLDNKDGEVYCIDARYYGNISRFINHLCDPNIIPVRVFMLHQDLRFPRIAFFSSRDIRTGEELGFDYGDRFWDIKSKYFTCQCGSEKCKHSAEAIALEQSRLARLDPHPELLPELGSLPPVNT
Assay: MDA-MB-231 H3K9me2 in-cell Western assay (EHMT2 ICW)
Format: cell-based
Description: MDA-MB-231 cell line was purchased from ATCC (Manassas, Va., USA). RPMI/Glutamax medium, Penicillin-Streptomycin, Heat Inactivated Fetal Bovine Serum, and D-PBS were purchased from Life Technologies (Grand Island, N.Y., USA). Odyssey blocking buffer, 800CW goat anti-mouse IgG (H+L) antibody, and Licor Odyssey Infrared Scanner were purchased from Licor Biosciences, Lincoln, Nebr., USA. H3K9me2 mouse monoclonal antibody (Cat #1220) was purchased from Abcam (Cambridge, Mass., USA). 16% Paraformaldehyde was purchased from Electron Microscopy Sciences, Hatfield, Pa., USA). MDA-MB-231 cells were maintained in complete growth medium (RPMI supplemented with 10% v/v heat inactivated fetal bovine serum) and cultured at 37° C. under 5% CO2. UNC0638 was purchased from Sigma-Aldrich (St. Louis, Mo., USA).
General Procedure for MDA-MB-231 HEK9me2 in-cell Western Assay. Compound (100 nL) was added directly to 384-well cell plate. MDA-MB-231 cells (ATCC) were seeded in assay medium (RPMI/Glutamax supplemented with 10% v/v heat inactivated fetal bovine serum and 1% Penicillin/Streptomycin, Life Technologies) at a concentration of 3,000 cells per well to a Poly-D-Lysine coated 384-well cell culture plate with 50 μL per well. Plates were incubated at 37° C., 5% CO2 for 48 hours (BD Biosciences 356697). Plates were incubated at room temperature for 30 minutes and then incubated at 37° C., 5% CO2 for additional 48 hours. After the incubation, 50 μL per well of 8% paraformaldehyde (Electron Microscopy Sciences) in PBS was added to the plates and incubated at room temperature for 20 minutes. Plates were transferred to a Biotek 406 plate washer and washed 2 times with 100 μL per well of wash buffer (1×PBS containing 0.3% Triton X-100 (v/v)). Next, 60 μL per well of Odyssey blocking buffer (Licor Biosciences) was added to each plate and incubated for 1 hour at room temperature. Blocking buffer was removed and 20 μL of monoclonal primary antibody α-H3K9me2 (Abcam) diluted 1:800 in Odyssey buffer with 0.1% Tween 20 (v/v) were added and plates were incubated overnight (16 hours) at 4° C. Plates were washed 5 times with 100 μL per well of wash buffer. Next 20 μL per well of secondary antibody was added (1:500 800CW donkey anti-mouse IgG (H+L) antibody (Licor Biosciences), 1:1000 DRAQ5 (Cell Signaling Technology) in Odyssey buffer with 0.1% Tween 20 (v/v)) and incubated for 1 hour at room temperature. The plates were washed 5 times with […] wash buffer then 2 times with 100 μL per well of water. Plates were allowed to dry at room temperature then imaged on a Licor Odyssey Infrared Scanner (Licor Biosciences) which measured integrated intensity at 700 nm and 800 nm wavelengths. Both 700 and 800 channels were scanned.
% Inhibition Calculation. First, the ratio for each well was determined by:
Each plate included fourteen control wells of DMSO only treatment (Minimum Inhibition) as well as fourteen control wells (background wells) for maximum inhibition treated with control compound UNC0638 (Background wells).
The average of the ratio values for each well was calculated and used to determine the percent inhibition for each test well in the plate. Control compound was serially diluted three-fold in DMSO for a total of 10 test concentrations beginning at 1 μM. Percent inhibition was calculated as: […]
IC50 curves were generated using triplicate wells per concentration of compound. The IC50 is the concentration of compound at which measured methylation is inhibited by 50% as interpolated from the dose response curves. IC50 values were calculated using a non-linear regression (variable slope-four parameter fit model) with by the following formula:
where Top is fixed at 100% and Bottom is fixed to 0%, [I]=concentration of inhibitor, IC50=half maximal inhibitory concentration, and n=Hill Slope.

[1] = MDA-MB-231 cells, H3K9me2 in-cell Western, read-out: EHMT2 ICW (IC50 μM)

Row | SMILES | IC50 [1] [µM] | IC50 [µM]
1 | CCN1CC[C@@H](COc2cc3nc(N)n(C4CCCC4)c3cc2OC)C1 [Compound 9, 1-cyclopentyl-5-[[(3R)-1-ethylpyrrolidin-3-yl]methoxy]-6-methoxy-1H-1,3-benzodiazol-2-amine] | 0.1 to 1 | 
2 | CNC1=Nc2cc(C#CC(C)N3CCCC3)c(OC)cc2C12CCC2 (stereo not shown) [Compound 84] | 0.1 to 1 | 
3 | COc1cc2c(cc1OCCCN1CCCC1)nc(N)n2CC(F)(F)F [Compound 11, 6-methoxy-5-(3-(pyrrolidin-1-yl)propoxy)-1-(2,2,2-trifluoroethyl)-1H-benzo[d]imidazole-2-amine] | 1 to 10 | 
4 | COc1cc2c(cc1OC[C@H](O)CN1CCCC1)nc(NCC1CC1)n2C [Compound 34] | 0.1 to 1 | 
5 | COc1cc2[nH]c(N)nc2cc1OCCCN1CCCC1 [Compound 1, 6-methoxy-5-(3-(pyrrolidin-1-yl)propoxy)-1H-benzo[d]imidazol-2-amine] | 1 to 10 | 
6 | CNC1=Nc2cc(C#C[C@H](C)N3CCCC3)c(OC)cc2C12CCC2 [Compound 85] | < 0.1 | 
7 | CNc1nc2cc(OC[C@H](O)CN3CCC3)c(OC)cc2n1C [Compound 25] | 0.1 to 1 | 
8 | CCNC1=Nc2cc(CNCCN3CCCC3)c(OC)cc2C12CCC2 [Compound 71] | 1 to 10 | 
9 | CNc1nc2cc(CNCCN3CCCC3)c(OC)cc2n1C(C)C [Compound 40] | 1 to 10 | 
10 | CCN1CC(COc2cc3nc(N)n(C4CCCC4)c3cc2OC)C1 [Compound 10, 1-cyclopentyl-5-((1-ethylazetidin-3-yl)methoxy)-6-methoxy-1H-benzo[d]imidazol-2-amine] | 0.1 to 1 | 
11 | COc1cc2c(cc1OCCCN1CCCC1)nc(N)n2C [Compound 2, 6-methoxy-1-methyl-5-(3-(pyrrolidin-1-yl)propoxy)-1H-benzo[d]imidazol-2-amine] | 0.1 to 1 | 
12 | CNC1=Nc2cc(C#CCN3CCCCC3)c(OC)cc2C12CCC2 [Compound 75, 5′-methoxy-N-methyl-6′-(3-(piperidin-1-yl)prop-1-yn-1-yl)spiro[cyclobutane-1,3′-indol]-2′-amine] | < 0.1 | 
13 | CCCNC1=Nc2cc(CNCCN3CCCC3)c(OC)cc2C12CCC2 [Compound 73] | 0.1 to 1 | 
14 | COc1cc2c(cc1C#CCN1CCCC1)N=C(N)C21CCC1 [Compound 24, 5′-methoxy-6′-(3-(pyrrolidin-1-yl)prop-1-yn-1-yl)spiro[cyclobutane-1,3′-indol]-2′-amine] | < 0.1 | 
15 | COc1cc2c(cc1OCCCN1CCCC1)nc(NCC(F)(F)F)n2C [Compound 12, 6-methoxy-1-methyl-5-(3-(pyrrolidin-1-yl)propoxy)-N-(2,2,2-trifluoroethyl)-1H-benzo[d]imidazol-2-amine] | 1 to 10 | 
16 | CNC1=Nc2cc(CNCCN3CCCC3)c(OC)cc2C12CCC2 [Compound 70] | 0.1 to 1 | 
17 | COc1cc2c(cc1OCCCN1CCCC1)nc(N)n2CC1CCOCC1 [Compound 18] | 1 to 10 | 
18 | COc1cc2c(cc1OC[C@H](O)CN1CCCC1)nc(NC(C)C)n2C [Compound 32] | 1 to 10 | 
19 | COc1cc2c(cc1OCCCN1CCCC1)N=C(N)C21CCOCC1 [Compound 5, 5-methoxy-6-(3-(pyrrolidin-1-yl)propoxy)-2′,3′,5′,6′-tetrahydrospiro[indole-3,4′-pyran]-2-amine] | 0.1 to 1 | 

Row | SMILES | IC50 [1] [µM] | IC50 [µM]
20 | COc1cc2c(cc1OCCCN1CCCC1)nc(NC(C)C)n2C [Compound 28] | 1 to 10 | 
21 | CNc1nc2cc(OCCCN3CCCC3)c(OC)cc2n1C [Compound 8, 6-methoxy-N,1-dimethyl-5-(3-(pyrrolidin-1-yl)propoxy)-1H-benzo[d]imidazol-2-amine] | < 0.1 | 
22 | CNc1nc2cc(OC[C@H](O)CN3CCCC3)c(OC)cc2n1C1CCCC1 [Compound 38] | 0.1 to 1 | 
23 | CNc1nc2cc(CNCCN3CCCC3)c(Cl)cc2n1C(C)C [Compound 138] | 1 to 10 | 
24 | CNc1nc2cc(OCCCN3CCCC3)c(OC)cc2n1C(C)C [Compound 36] | < 0.1 | 
25 | COc1cc2c(cc1OCCCN1CCCC1)nc(N)n2C(C)C [Compound 19] | 0.1 to 1 | 
26 | COc1cc2c(cc1OCCCN1CCCC1)nc(C1CCCC1)n2C [Compound 22, 2-cyclopentyl-6-methoxy-1-methyl-5-(3-(pyrrolidin-1-yl)propoxy)-1H-benzo[d]imidazole] | > 10 | 
27 | CCn1c(NC)nc2cc(OCCCN3CCCC3)c(OC)cc21 [Compound 42] | < 0.1 | 
28 | CNc1nc2cc(CNCCN3CCCC3)c(C)cc2n1C(C)C [Compound 139] | 1 to 10 | 
29 | CNC1=Nc2cc(C#CCN3CCC(F)C3)c(OC)cc2C12CCC2 (stereo not shown) [Compound 100] | 1 to 10 | 
30 | CNc1nc2cc(OCCCN3CCCC3)c(OC)cc2n1C1CCOCC1 [Compound 13, 6-methoxy-N-methyl-5-(3-(pyrrolidin-1-yl)propoxy)-1-(tetrahydro-2H-pyran-4-yl)-1H-benzo[d]imidazol-2-amine] | 0.1 to 1 | 
31 | COc1cc2c(cc1OCCCN1CCCC1)nc(C)n2C [Compound 21, 6-methoxy-1,2-dimethyl-5-(3-(pyrrolidin-1-yl)propoxy)-1H-benzo[d]imidazole] | > 10 | 
32 | COc1cc2c(cc1OC[C@H](O)CN1CCCC1)nc(NC1CCOCC1)n2C [Compound 35] | > 10 | 
33 | CCNc1nc2cc(OCCCN3CCCC3)c(OC)cc2n1CC [Compound 39] | 0.1 to 1 | 
34 | COc1cc2c(cc1OCCCN1CCCC1)nc(NC1CCOCC1)n2C [Compound 29] | 1 to 10 | 
35 | COc1cc2c(cc1OC[C@H](O)CN1CCCC1)nc(NC1CCCC1)n2C [Compound 33] | 1 to 10 | 
36 | CNc1nc2cc(OC[C@H](O)CN3CCCC3)c(OC)cc2n1C [Compound 26] | 0.1 to 1 | 
37 | COc1cc2c(cc1OCCCN1CCCC1)N=C(N)C21CCOC1 (stereo not shown) [Compound 7, 5′-methoxy-6′-(3-(pyrrolidin-1-yl)propoxy)-4,5-dihydro-2H-spiro[furan-3,3′-indol]-2′-amine] |  | 0.1 to 1
